Where only a bound is given, the exact number is not on record here.

Experiment [1] addresses T1, Nuclear receptor ROR-gamma (Homo sapiens, UniProt P51449).
T1 sequence (P51449 whole entry): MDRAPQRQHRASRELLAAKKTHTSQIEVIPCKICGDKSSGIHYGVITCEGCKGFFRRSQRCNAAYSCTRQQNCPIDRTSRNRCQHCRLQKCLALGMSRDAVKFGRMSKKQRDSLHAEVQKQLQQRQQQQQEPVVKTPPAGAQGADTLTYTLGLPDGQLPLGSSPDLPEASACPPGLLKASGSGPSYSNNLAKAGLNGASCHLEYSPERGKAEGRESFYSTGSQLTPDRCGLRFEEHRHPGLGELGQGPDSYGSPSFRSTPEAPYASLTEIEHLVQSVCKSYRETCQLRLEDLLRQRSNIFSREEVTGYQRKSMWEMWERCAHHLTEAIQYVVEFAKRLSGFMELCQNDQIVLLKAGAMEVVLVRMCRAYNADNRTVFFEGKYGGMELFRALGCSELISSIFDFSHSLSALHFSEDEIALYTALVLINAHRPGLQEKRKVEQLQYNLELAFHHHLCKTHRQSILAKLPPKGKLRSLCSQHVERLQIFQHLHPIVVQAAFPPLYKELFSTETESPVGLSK
Briefly: Inverse agonist activity at human RoRc-LBD fusion protein with GST expressed in […] cells assessed as SRC1 coactivator peptide recruitment. It is filed as functional, cell-based.

The target of experiment [2] is T2, Nuclear receptor ROR-gamma (Homo sapiens) (UniProt P51449).
T2 sequence (whole entry): T1 sequence (P51449 whole entry)
As to the kind of experiment: Inverse agonist activity at human RoRc in human skin model assessed as suppression of IL-22 level relative to control. As to conditions: concentration not given here.

Experiment [3] concerns the target T2, Nuclear receptor ROR-gamma (Homo sapiens). As to the kind of experiment: Inverse agonist activity at human RoRc in human skin model assessed as suppression of IL-17A level relative to control. The class given is functional. As to conditions: concentration not given here.
Experiment [4] addresses T3, Nuclear receptor ROR-gamma (Mus musculus) (UniProt P51450).
T3 sequence (whole entry): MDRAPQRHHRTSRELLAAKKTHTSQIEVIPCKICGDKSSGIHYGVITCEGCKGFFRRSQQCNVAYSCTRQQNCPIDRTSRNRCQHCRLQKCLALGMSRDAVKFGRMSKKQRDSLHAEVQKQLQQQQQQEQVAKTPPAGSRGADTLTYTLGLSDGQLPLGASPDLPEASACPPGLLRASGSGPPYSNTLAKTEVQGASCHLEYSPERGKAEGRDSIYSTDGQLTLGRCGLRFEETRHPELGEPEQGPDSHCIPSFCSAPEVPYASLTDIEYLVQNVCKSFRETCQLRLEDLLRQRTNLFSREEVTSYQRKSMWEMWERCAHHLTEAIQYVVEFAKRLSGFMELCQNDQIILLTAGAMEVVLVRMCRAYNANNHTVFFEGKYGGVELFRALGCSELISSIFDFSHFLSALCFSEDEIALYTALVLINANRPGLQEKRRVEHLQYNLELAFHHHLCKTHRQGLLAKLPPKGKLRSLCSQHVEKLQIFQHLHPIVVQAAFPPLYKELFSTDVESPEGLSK
Briefly: Activity at RoRc in mouse CD4+ T cells assessed as inhibition of IL-17 production at 10 uM. It is filed as cell-based. As to conditions: T-cell.

Experiment [5] addresses T2, Nuclear receptor ROR-gamma (Homo sapiens). As to the kind of experiment: Activity at human RoRc in human Jurkat cells assessed as inhibition of IL-17 promoter at 3 uM relative to control. The class given is cell-based.
The target of experiment [6] is T1, Nuclear receptor ROR-gamma. As to the kind of experiment: Inhibition of RORc (unknown origin) assessed as inhibition of fluorescein-D22 recruitment by TR-FRET assay. It is filed as functional. Background: In TR-FRET formats the signal depends on donor and acceptor labels being close together.
Experiment [7] concerns Mus musculus. Briefly: Decrease in serum IL-17a level in mouse at 30 mg/kg in presence of anti-CD3 antibody. The class given is functional.
The subject of experiment [8] is Mus musculus. As to the kind of experiment: Decrease in serum IL-17a level in mouse at 300 mg/kg in presence of anti-CD3 antibody. The class given is functional.
For experiment [9], the system named is Mus musculus. As to the kind of experiment: Decrease in serum IL-17a level in mouse at 100 mg/kg in presence of anti-CD3 antibody. It is filed as functional.
In experiment [10] the target is T1, Nuclear receptor ROR-gamma. Briefly: Binding affinity to RORgamma (unknown origin).

By EC50 is commonly meant the concentration that produces a half-maximal response. One may read the inhibition as the percentage by which the read-out fell short of the control. Turning to `CCc1ccc(N(CC(C)C)S(=O)(=O)c2ccc(C(O)CN3CCOCC3)c(CO)c2)cc1` (configuration not stated), the EC50 in experiment [1] worked out at 32 nM. Moreover, the inhibition is 60% in experiment [2] and 83% in experiment [3].
Turning to `COc1ccc(-c2c(-c3nc(CC(=O)NCC4CCOCC4)cs3)cnn2C(C)(C)C)cc1F`, the inhibition in [4] was found to be 91%; in experiment [5], 96%.
Regarding `CCS(=O)(=O)c1ccc(CC(=O)Nc2ccc(-c3ccccc3)c(Oc3ccccc3)c2)cc1`, the EC50 in experiment [6] was below 50 nM.
As a reminder, the inhibition in vivo is the drop in the measured response relative to a control, in per cent. In the case of `CCn1c2ccccc2c2cc(NC(=O)CC(C)CC(=O)Nc3ccc(C#N)c(Cl)c3)ccc21` (configuration not stated), in the experiment with Mus musculus [7], the inhibition in vivo at 30 mg/kg was 10%. Besides, in the experiment on Mus musculus [8], the inhibition in vivo at 300 mg/kg turned out to be 53%. In the experiment with Mus musculus [9], the inhibition in vivo at 100 mg/kg was 25%. Further, the inhibition in experiment [4] turned out to be 96%.
For `CCS(=O)(=O)c1ccc(CC(=O)Nc2ccc(-n3ccc(C)n3)c(Oc3cccc(OC(F)(F)F)c3)c2)cc1`, in experiment [6], the EC50 is below 50 nM.
As a reminder, the IC50 is the midpoint of a concentration-inhibition curve. A lower IC50 goes with greater potency. The compound `C[C@H]1O[C@@H](O[C@H]2[C@@H](O)C[C@H](O[C@H]3[C@@H](O)C[C@H](O[C@H]4CC[C@@]5(C)[C@H](CC[C@@H]6[C@@H]5C[C@@H](O)[C@]5(C)[C@@H]([C@@H](CO)CCO)CC[C@]65O)C4)O[C@@H]3C)O[C@@H]2C)C[C@H](O)[C@@H]1O` came in with an IC50 in experiment [10] of 12 µM.

The record behind these values is ChEMBL document CHEMBL3351629, “Modulators of the nuclear receptor retinoic acid receptor-related orphan receptor-γ (RORγ or RORc)” (J Med Chem, 2014).
